Test results reported in patent US7074789B2, “Kinase inhibitors” (Amgen Inc., priority 1999, dated 2006).

Tests used:
Assay type in all cases: biochemical
Lyn = target: T1, Lyn (Homo sapiens, UniProt P07948); test: Kinase inhibition assay (33P transfer), Lyn; details: Table 6, Lyn-1 kinase inhibition class
T1 construct: Kinases are expressed as either kinase domains or full length constructs; made in house
In short: (§1)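 Radiometric format: recombinant tagged kinase (catalytic domain or whole protein, sometimes combined with regulatory polypeptides) phosphorylates immobilised poly(Glu,Tyr) 4:1 or poly(Arg,Ser) 3:1 using [33P]ATP. Wells are washed in 0.5% phosphoric acid, then counted. IC50 is taken where substrate labelling falls by half.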

Kdr = target: T2, Kdr (Homo sapiens, UniProt P35968); test: Kinase inhibition assay (33P transfer), Kdr; details: read-out: KDR-1
T2 construct: Kinases are expressed as either kinase domains or full length constructs; made in house
In short: (§2)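 Radiometric readout: 33P incorporated into surface-bound poly(Glu,Tyr) 4:1 or poly(Arg,Ser) 3:1 is counted by liquid scintillation after a 0.5% phosphoric acid wash. Enzymes were GST or polyHis fusions (kinase domain or full length) from E. coli or High Five insect cells.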

Ret-1 = target: T3, Ret-1 (Homo sapiens, UniProt P07949); test: Kinase inhibition assay (33P transfer), Ret; details: Table 6, Ret-1 kinase inhibition class
T3 construct: Kinases are expressed as either kinase domains or full length constructs; made in house
T3 sequence (P07949 29-1114): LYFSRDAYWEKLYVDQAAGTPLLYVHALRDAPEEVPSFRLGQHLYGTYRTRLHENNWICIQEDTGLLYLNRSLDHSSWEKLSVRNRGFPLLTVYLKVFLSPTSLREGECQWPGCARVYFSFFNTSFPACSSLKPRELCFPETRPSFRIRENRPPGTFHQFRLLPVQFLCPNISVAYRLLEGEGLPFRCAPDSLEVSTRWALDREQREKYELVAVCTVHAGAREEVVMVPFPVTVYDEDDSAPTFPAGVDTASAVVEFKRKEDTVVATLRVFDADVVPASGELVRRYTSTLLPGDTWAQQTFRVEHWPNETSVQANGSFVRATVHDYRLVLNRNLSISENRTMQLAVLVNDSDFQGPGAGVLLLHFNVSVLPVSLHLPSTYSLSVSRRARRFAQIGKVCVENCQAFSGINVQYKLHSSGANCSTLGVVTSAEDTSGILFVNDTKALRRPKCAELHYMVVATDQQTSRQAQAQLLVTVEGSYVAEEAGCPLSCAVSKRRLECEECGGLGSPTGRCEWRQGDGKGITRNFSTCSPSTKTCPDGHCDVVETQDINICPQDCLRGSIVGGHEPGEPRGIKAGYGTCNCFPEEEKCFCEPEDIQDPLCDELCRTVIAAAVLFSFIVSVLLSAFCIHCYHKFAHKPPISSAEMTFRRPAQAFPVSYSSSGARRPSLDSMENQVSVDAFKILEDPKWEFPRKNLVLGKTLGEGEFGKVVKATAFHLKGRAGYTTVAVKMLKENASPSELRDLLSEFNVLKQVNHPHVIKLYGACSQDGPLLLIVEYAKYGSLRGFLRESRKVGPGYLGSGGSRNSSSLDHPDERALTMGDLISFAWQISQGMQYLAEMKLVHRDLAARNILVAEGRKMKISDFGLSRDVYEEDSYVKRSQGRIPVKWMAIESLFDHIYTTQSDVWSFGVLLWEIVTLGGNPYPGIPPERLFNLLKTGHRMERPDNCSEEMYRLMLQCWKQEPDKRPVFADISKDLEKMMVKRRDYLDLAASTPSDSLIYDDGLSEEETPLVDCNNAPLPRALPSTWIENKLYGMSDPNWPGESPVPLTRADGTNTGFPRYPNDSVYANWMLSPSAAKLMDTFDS

EGFR = target: T4, EGFR (Homo sapiens, UniProt P00533); test: Kinase inhibition assay (33P transfer), EGFR; details: Table 2, kinase inhibition class; read-out: EGFR-1
T4 construct: Kinases are expressed as either kinase domains or full length constructs; made in house
T4 sequence (P00533 25-1210, species assumed): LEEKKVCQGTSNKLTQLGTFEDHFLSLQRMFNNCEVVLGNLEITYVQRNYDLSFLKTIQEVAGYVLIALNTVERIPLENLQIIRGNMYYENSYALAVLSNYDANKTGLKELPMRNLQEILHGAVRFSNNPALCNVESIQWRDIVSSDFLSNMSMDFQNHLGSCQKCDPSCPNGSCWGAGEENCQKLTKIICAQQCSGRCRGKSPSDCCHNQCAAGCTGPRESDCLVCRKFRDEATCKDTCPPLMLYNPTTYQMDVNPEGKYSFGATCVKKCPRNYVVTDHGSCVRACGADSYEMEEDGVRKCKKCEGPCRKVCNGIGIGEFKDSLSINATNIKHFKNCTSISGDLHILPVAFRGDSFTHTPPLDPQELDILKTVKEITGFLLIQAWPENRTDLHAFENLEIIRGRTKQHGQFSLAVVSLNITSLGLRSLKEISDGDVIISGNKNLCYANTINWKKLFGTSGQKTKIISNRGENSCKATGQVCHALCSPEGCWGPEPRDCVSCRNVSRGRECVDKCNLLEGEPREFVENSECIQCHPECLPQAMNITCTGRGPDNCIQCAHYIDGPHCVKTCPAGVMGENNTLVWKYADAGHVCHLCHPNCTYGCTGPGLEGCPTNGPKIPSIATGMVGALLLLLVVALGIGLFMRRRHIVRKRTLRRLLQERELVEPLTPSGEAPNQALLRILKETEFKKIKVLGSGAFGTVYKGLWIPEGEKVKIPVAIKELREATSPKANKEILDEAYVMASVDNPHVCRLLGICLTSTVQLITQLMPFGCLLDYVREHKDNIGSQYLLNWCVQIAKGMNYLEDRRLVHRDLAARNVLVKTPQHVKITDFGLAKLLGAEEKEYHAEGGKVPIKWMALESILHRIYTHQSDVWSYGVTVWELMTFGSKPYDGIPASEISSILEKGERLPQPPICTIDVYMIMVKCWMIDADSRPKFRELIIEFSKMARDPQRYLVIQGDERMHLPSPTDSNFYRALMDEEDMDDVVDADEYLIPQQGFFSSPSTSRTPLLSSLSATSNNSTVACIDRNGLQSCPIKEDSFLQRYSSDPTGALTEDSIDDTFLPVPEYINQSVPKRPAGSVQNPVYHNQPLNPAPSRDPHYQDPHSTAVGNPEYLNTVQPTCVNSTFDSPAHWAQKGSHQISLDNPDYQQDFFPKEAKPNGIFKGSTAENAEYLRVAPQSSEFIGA
In short: as §1

Fyn = target: T5, Fyn (Homo sapiens, UniProt P06241); test: Kinase inhibition assay (33P transfer), Fyn; details: read-out: Fyn-1
T5 construct: Kinases are expressed as either kinase domains or full length constructs; made in house
T5 sequence (P06241 whole entry, species assumed, the tested form may be a part): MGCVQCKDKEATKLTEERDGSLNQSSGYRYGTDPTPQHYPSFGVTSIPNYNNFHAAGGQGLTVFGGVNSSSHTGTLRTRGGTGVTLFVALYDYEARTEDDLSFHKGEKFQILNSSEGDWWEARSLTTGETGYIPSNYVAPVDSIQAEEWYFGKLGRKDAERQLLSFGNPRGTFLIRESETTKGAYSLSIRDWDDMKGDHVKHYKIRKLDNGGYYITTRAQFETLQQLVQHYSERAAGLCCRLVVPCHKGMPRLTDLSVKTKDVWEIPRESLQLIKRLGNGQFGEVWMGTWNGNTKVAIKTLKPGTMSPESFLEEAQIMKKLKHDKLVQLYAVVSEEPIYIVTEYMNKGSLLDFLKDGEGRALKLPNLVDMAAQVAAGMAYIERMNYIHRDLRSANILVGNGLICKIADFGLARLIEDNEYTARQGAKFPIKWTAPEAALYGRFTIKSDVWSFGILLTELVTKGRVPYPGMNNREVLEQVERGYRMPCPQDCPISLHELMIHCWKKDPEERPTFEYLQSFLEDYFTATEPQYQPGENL
In short: as §1

Flt-1 = target: T6, Flt-1 (Homo sapiens, UniProt P17948); test: Kinase inhibition assay (33P transfer), Flt-1
T6 construct: Kinases are expressed as either kinase domains or full length constructs; made in house
In short: as §1

Lck = target: T7, Lck (Homo sapiens, UniProt P06239); test: Kinase inhibition assay (33P transfer), Lck; details: read-out: Lck-1
T7 construct: Kinases are expressed as either kinase domains or full length constructs; made in house
T7 sequence (P06239 whole entry, species assumed, the tested form may be a part): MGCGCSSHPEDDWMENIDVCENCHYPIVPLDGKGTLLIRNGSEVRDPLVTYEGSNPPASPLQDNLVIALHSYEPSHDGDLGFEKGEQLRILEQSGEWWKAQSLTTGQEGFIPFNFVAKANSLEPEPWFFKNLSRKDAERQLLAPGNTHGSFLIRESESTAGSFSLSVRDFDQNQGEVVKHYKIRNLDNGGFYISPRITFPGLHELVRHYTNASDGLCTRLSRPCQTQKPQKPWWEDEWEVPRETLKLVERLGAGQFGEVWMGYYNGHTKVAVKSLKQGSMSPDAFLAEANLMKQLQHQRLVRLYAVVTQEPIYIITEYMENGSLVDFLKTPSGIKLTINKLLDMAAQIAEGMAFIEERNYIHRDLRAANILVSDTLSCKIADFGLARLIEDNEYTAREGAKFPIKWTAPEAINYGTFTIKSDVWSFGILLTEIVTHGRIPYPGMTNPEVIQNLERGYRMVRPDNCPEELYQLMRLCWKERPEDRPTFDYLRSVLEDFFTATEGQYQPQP
In short: as §2

Hck-1 = target: T8, Hck-1 (Homo sapiens, UniProt P08631); test: Kinase inhibition assay (33P transfer), Hck; details: Table 6, Hck-1 kinase inhibition class
T8 construct: Kinases are expressed as either kinase domains or full length constructs; made in house

Tek = target: T9, Tek (Homo sapiens, UniProt Q02763); test: Kinase inhibition assay (33P transfer), Tek; details: read-out: Tek-1
T9 construct: Kinases are expressed as either kinase domains or full length constructs; made in house
In short: as §1

PDGFRB = target: T10, PDGFRB (Homo sapiens, UniProt P09619); test: Kinase inhibition assay (33P transfer), PDGFRB; details: read-out: PDGFRB-1
T10 construct: Kinases are expressed as either kinase domains or full length constructs; made in house
T10 sequence (P09619 33-1106, species assumed): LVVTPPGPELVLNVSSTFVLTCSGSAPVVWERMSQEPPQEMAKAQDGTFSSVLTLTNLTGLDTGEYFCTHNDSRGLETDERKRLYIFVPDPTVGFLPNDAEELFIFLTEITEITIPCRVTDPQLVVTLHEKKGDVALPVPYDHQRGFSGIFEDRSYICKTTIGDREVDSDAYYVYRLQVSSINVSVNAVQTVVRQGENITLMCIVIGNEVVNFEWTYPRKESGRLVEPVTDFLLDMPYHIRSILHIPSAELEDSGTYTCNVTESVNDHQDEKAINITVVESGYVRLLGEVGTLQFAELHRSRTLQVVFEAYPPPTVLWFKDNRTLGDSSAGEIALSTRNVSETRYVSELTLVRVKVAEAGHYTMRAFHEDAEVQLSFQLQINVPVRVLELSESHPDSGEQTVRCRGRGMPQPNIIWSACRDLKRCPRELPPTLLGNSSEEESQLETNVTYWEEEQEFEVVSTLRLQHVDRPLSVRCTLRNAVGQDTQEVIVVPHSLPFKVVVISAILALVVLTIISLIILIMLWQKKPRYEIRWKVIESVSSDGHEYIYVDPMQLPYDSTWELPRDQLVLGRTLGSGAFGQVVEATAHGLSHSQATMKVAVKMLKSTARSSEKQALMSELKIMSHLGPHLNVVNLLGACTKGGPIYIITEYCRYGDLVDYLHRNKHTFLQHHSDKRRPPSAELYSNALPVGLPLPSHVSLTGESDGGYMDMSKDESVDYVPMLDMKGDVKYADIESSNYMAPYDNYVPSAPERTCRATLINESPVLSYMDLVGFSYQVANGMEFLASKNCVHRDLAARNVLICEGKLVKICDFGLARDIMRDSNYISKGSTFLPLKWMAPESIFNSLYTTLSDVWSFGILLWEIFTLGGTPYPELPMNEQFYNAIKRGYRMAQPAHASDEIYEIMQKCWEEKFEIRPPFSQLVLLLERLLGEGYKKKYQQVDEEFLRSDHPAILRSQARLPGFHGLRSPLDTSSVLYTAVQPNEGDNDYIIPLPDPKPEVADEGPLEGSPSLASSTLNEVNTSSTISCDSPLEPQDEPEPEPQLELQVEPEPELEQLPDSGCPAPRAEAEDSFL

ErbB4 = target: T11, ErbB4 (Homo sapiens, UniProt Q15303); test: Kinase inhibition assay (33P transfer), ErbB4; details: read-out: ErbB4-1
T11 construct: Kinases are expressed as either kinase domains or full length constructs; made in house

IGFR-1 = target: T12, IGFR-1 (Homo sapiens, UniProt P08069); test: Kinase inhibition assay, IGFR-1 (Table 2); details: Table 2, kinase inhibition class
T12 construct: Kinases are expressed as either kinase domains or full length constructs; made in house

Zap-70 = target: T13, Zap-70 (Homo sapiens, UniProt P43403); test: Kinase inhibition assay (33P transfer), Zap-70; details: read-out: Zap-1
T13 construct: Kinases are expressed as either kinase domains or full length constructs; made in house
T13 sequence (P43403 1-619): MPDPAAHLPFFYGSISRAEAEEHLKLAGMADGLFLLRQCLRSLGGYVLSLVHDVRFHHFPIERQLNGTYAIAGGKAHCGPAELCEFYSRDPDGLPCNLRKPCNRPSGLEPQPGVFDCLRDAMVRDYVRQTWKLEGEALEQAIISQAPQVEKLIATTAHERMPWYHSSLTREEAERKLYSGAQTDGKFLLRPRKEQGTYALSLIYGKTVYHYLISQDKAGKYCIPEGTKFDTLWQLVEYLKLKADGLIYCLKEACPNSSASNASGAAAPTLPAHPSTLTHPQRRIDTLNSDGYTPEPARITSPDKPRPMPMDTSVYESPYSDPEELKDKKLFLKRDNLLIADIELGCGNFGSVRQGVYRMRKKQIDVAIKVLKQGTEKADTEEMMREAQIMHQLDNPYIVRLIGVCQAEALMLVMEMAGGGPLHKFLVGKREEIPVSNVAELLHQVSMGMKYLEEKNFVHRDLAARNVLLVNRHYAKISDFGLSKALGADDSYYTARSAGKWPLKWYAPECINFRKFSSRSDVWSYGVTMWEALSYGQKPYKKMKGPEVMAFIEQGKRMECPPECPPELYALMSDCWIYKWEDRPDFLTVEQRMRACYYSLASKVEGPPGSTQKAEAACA
In short: as §2

AKT = target: T14, AKT (Homo sapiens, UniProt Q9Y243); test: Kinase inhibition assay (33P transfer), AKT; details: Table 2, kinase inhibition class; read-out: AKT3-1
T14 construct: Kinases are expressed as either kinase domains or full length constructs; made in house
In short: as §2

Src = target: T15, Src (Homo sapiens, UniProt P12931); test: Kinase inhibition assay (33P transfer), Src; details: Table 6, Src-1 kinase inhibition class
T15 construct: Kinases are expressed as either kinase domains or full length constructs; made in house
In short: as §1

Itk = target: T16, Itk (Homo sapiens, UniProt Q08881); test: Kinase inhibition assay (33P transfer), Itk; details: read-out: Itk-1
T16 construct: Kinases are expressed as either kinase domains or full length constructs; made in house
T16 sequence (Q08881 1-620): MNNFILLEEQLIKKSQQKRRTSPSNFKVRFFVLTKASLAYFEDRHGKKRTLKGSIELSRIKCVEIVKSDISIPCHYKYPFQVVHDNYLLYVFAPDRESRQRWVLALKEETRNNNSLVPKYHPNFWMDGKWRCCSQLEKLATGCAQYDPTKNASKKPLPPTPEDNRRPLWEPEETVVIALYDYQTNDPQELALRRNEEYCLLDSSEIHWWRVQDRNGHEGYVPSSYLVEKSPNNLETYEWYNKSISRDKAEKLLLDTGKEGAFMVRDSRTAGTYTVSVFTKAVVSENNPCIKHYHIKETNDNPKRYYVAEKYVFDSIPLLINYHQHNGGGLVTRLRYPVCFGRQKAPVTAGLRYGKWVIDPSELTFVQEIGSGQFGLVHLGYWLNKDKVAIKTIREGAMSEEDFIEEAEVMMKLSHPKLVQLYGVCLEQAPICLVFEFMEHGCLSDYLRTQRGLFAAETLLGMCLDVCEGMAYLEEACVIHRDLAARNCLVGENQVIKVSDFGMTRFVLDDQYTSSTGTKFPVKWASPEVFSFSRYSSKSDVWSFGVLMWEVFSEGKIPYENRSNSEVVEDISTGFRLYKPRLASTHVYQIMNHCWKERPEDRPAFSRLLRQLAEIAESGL
In short: as §1

ErbB2 = target: T17, ErbB2 (Homo sapiens, UniProt P04626); test: Kinase inhibition assay (33P transfer), ErbB2; details: read-out: ErbB2-2
T17 construct: Kinases are expressed as either kinase domains or full length constructs; made in house
In short: as §1

FGFR1 = target: T18, FGFR1 (Homo sapiens, UniProt P11362); test: Kinase inhibition assay (33P transfer), FGFR1; details: read-out: FGFR1-1
T18 construct: Kinases are expressed as either kinase domains or full length constructs; made in house

c-Met = target: T19, c-Met (Homo sapiens, UniProt P08581); test: Kinase inhibition assay (33P transfer), c-Met; details: Table 2, kinase inhibition class; read-out: Met-1
T19 construct: Kinases are expressed as either kinase domains or full length constructs; made in house
In short: as §1

T1 sequence (P07948 whole entry, species assumed, the tested form may be a part): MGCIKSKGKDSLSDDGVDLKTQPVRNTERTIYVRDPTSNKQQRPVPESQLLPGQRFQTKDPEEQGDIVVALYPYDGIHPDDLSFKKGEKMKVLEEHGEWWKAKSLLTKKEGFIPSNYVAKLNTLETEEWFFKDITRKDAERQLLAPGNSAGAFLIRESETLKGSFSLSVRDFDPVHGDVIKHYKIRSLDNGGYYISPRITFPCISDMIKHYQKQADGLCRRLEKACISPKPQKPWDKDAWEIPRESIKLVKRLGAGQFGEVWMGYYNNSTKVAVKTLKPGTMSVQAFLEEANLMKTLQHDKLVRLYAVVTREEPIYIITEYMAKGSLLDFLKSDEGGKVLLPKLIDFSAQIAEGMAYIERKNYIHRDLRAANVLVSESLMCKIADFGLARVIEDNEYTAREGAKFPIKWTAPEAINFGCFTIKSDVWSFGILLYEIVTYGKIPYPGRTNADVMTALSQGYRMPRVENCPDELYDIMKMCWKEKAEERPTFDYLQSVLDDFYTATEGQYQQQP

Row | Structure (SMILES) | IC50 (Lyn) [nM] | IC50 (Kdr) [nM] | IC50 (Ret-1) [nM] | IC50 (EGFR) [µM] | IC50 (Fyn) [nM] | IC50 (Flt-1) [nM] | IC50 (Lck) [nM] | IC50 (Hck-1) [µM] | IC50 (Tek) [µM] | IC50 (PDGFRB) [nM] | IC50 (ErbB4) [µM] | IC50 (IGFR-1) [µM] | IC50 (Zap-70) [µM] | IC50 (AKT) [µM] | IC50 (Src) [µM] | IC50 (Itk) [µM] | IC50 (ErbB2) [µM] | IC50 (FGFR1) [nM] | IC50 (c-Met) [µM]
1 | COc1cc(Nc2ncnc(-n3c(=O)[nH]c4ccccc43)n2)cc(OC)c1OCCN1CCOCC1 [Compound 1040] | > 9120 | < 810 | 4860 to 7090 | 4.86 to 7.09 | 810 to 4860 | 810 to 4860 | 810 to 4860 | > 9.12 | > 9.12 | < 810 | 4.86 to 7.09 | 7.09 to 9.12 | > 9.12 | > 9.12 | 0.81 to 4.86 | 0.81 to 4.86 | 4.86 to 7.09 | 810 to 4860 | > 9.12
2 | CCN(CC)CCOc1cc(Nc2ncnc(Nc3cc(OC)c(OC)c(OC)c3)n2)ccc1OC [Compound 600] | < 802 | 802 to 4810 | 802 to 4810 | > 9.03 | 802 to 4810 | > 9030 | < 802 | > 9.03 |  | 802 to 4810 | 0.802 to 4.81 | > 9.03 | > 9.03 | > 9.03 | 0.802 to 4.81 | > 9.03 | 4.81 to 7.02 | > 9030 | > 9.03

Other lines, results leading:

Row | IC50 (Lyn) [nM] | IC50 (Kdr) [nM] | IC50 (Ret-1) [nM] | IC50 (EGFR) [µM] | IC50 (Fyn) [nM] | IC50 (Flt-1) [nM] | IC50 (Lck) [nM] | IC50 (Hck-1) [µM] | IC50 (Tek) [µM] | IC50 (PDGFRB) [nM] | IC50 (ErbB4) [µM] | IC50 (IGFR-1) [µM] | IC50 (Zap-70) [µM] | IC50 (AKT) [µM] | IC50 (Src) [µM] | IC50 (Itk) [µM] | IC50 (ErbB2) [µM] | IC50 (FGFR1) [nM] | IC50 (c-Met) [µM] | Structure (SMILES)
3 | < 804 | < 804 | < 804 | 4.82 to 7.03 | < 804 | < 804 | < 804 | > 9.04 | > 9.04 | < 804 | 0.804 to 4.82 | > 9.04 | > 9.04 | > 9.04 | 0.804 to 4.82 | > 9.04 | 7.03 to 9.04 | < 804 | > 9.04 | COc1cc(Nc2ncnc(-n3c(N[C@@H](C)c4ccccc4)nc4ccccc43)n2)cc(OC)c1OC [Compound 1033]
4 | < 798 | < 798 | < 798 | > 8.97 | > 8970 | 798 to 4790 | 798 to 4790 | > 8.97 | > 8.97 | < 798 | 0.798 to 4.79 | > 8.97 | > 8.97 | > 8.97 | > 8.97 | > 8.97 | 4.79 to 6.98 | < 798 | > 8.97 | COc1cc(Nc2ncnc(-n3c(NCc4ccccc4F)nc4ccccc43)n2)cc(OC)c1OC [Compound 512]
5 | 782 to 4690 | < 782 | < 782 | 0.782 to 4.69 | 782 to 4690 | 782 to 4690 | 782 to 4690 | > 8.8 |  | < 782 | 4.69 to 6.84 | > 8.8 | > 8.8 | > 8.8 | 0.782 to 4.69 | > 8.8 | 0.782 to 4.69 | < 782 | > 8.8 | CCC(Nc1nc2ccccc2n1-c1ncnc(Nc2cc(OC)c(OC)c(OC)c2)n1)c1ccccc1 (stereo not drawn) [Compound 592]
